Results reported in paper PMC3492160, “Identification of white campion (Silene latifolia) guaiacol O-methyltransferase involved in the biosynthesis of veratrole, a key volatile for pollinator attraction” (BMC Plant Biology, 2012).

Assays:
SlGOMT2 = test system: T1, SlGOMT2; assay: radiometric methylation assay with […]-SAM, ethyl acetate extraction, double reciprocal plot; type: biochemical, Silene latifolia; conditions: SAM 200 μM constant; 5 mM MgCl2; Tris-HCl pH 7.5; room temperature; apparent Km
T1 construct: no tag removal described

SlGOMT1 = test system: T2, SlGOMT1; assay: as above; type: biochemical, Silene latifolia; conditions: SAM 200 μM constant; 5 mM MgCl2; Tris-HCl pH 7.5; room temperature; apparent Km
T2 construct: no tag removal described

Km (SlGOMT2): 501 ± 198 µM
Km (SlGOMT1): 9.79 ± 1.51 µM
Compound: COc1ccccc1O [guaiacol]
